One assay has as its system RC17 hESCs. As to the kind of experiment: Adherent differentiation of ventral mesencephalon progenitors on full-length laminin subtypes, day 0-11. Type of assay: cell-based, human. The conditions noted are these: for yield of neural cells relative to a standard yield of 100%: laminin as coating, day 0-11 of the protocol. The source says: To develop a GMP-compatible differentiation protocol for high and reproducible yield of caudilised mesDA ventral mesencephalon progenitors that would result in good graft outcome, a fully GMP-derived hES cell line RC17 from Roslin cells (hPS Creg #RCe021-A) was used. Previous research grade ventral mesencephalon differentiation protocols have implemented steps of embryoid body (EB) formation or culturing on MATRIGEL®, both of which pose problems in GMP adaptation due to difficulties in reproducibility and the content of undefined animal-derived component, respectively.
Relative to a standard yield of 100%, LN-111 yielded 170%, LN-421 yielded 294%, LN-511 yielded 223%, and LN-521 yielded 208%. RC17 cells were differentiated according to the methods described herein, but on plates that were coated with laminin-121 instead of laminin-111. FIG. 8C compares the yields, and the yields are about equal to each other, i.e. LN-121 works about as well as LN-111 as a substrate.

In a further assay the test system is undifferentiated hESCs. As to the kind of experiment: Plating of undifferentiated hESCs on laminin matrix in pluripotency medium or differentiation medium. The assay is classed as cell-based, human. Conditions: laminin as matrix. The protocol: When the same number of cells was plated onto LN-111 in B27 medium, the cultures remained adherent and grew to confluency after 7 days of differentiation while showing rapid downregulation of pluripotency markers.

The results in this text go back to patent publication US11236302B2, “Methods and compositions for producing stem cell derived dopaminergic cells for use in treatment of neurodegenerative diseases” (BIOLAMINA AB, priority 2015, dated 2022).

“LN-111: the protein formed by joining α1, β1 and γ1 chains together”: the “yield of neural cells relative to a standard yield of 100%” value with RC17 hESCs was determined as 170%. Moreover, in the assay on undifferentiated hESCs, the “support of growth of pluripotent stem cells versus neural cells” value is “selectively supported the growth of neural cells but not pluripotent stem cells”.
For “LN-121: the protein formed by joining α1, β2 and γ1 chains together”, the “yield of dopaminergic cells on LN-121 compared with LN-111” value in the assay on RC17 hESCs (RC17 cells, plates coated with laminin-121 instead of laminin-111) is given as “about equal”.
Take “LN-421: the protein formed by joining α4, β2 and γ1 chains together”: the “yield of neural cells relative to a standard yield of 100%” value in the assay with RC17 hESCs amounted to 294%.
Take “LN-511: the protein formed by joining α5, β1 and γ1 chains together”: in the assay with RC17 hESCs, the “yield of neural cells relative to a standard yield of 100%” value is reported as 223%. Further, the “support of growth of pluripotent stem cells versus neural cells” value in the assay on undifferentiated hESCs is “efficiently support growth of hPSCs”.
On to “LN-521: the protein formed by joining α5, β2 and γ1 chains together”, for which, in the assay on RC17 hESCs, the “yield of neural cells relative to a standard yield of 100%” value is 208%. Moreover, the “support of growth of pluripotent stem cells versus neural cells” value in the assay on undifferentiated hESCs is listed as “efficiently support growth of hPSCs”.
